# Measurements from patent US20260042764A1, “COMPOSITIONS AND METHODS FOR INHIBITION OF KRAS” (TheRas, Inc., priority 2022, published 2026).
# What was measured:
# [1] = molecular target: T1, Avi-KRAS G12D (1-169) GppNHp/RAF1 RBD-3xFLAG (52-151) (Homo sapiens, UniProt P01116, G12D); assay: Raf1-KRAS G12D-GppNHP disruption HTRF assay (Biological Example 1); type: binding
# T1 construct: Avi-KRAS G12D (1-169)
# Summary of the method: (§1)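 First, protein mix in Tris pH 7.5 buffer with NaCl, MgCl2, BSA, Tween and 10% DMSO is incubated 1 h at room temperature. Next, reagent mix is added and incubated a further 1 h at room temperature. Finally, HTRF is read and activity normalized to DMSO.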
# GP2d cells (KRAS G12D) = assay: Cell-based pERK HTRF assay in GP2d cell (Biological Example 2); details: GP2d (KRAS G12D) cells, pERK HTRF
# Summary of the method: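 Phospho-ERK in lysed cells was detected by HTRF using Eu cryptate and d2 antibodies, read between 4 and 24 h at room temperature. Prior to lysis, KRAS G12D GP2d cells, seeded the day before in DMEM with 10% FBS, were exposed to compounds for 60 min. Compounds were tested as 9-point half-log curves from 1 μM or 100 nM top, with 0.25% DMSO.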
# [2] = molecular target: T2, Avi-KRAS G12V (1-169) GppNHp/RAF1 RBD-3xFLAG (52-151) (Homo sapiens, UniProt P01116, G12V); assay: Raf1-KRAS G12V-GppNHP disruption HTRF assay (Biological Example 1); type: binding
# T2 construct: Avi-KRAS G12V (1-169)
# T2 sequence (P01116 1-169 isoform P01116-2 G12V): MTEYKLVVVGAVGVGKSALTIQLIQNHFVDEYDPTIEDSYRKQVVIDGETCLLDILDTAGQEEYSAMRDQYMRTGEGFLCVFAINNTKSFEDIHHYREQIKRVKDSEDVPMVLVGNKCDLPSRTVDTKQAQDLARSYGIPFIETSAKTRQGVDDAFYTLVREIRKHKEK
# Summary of the method: as §1
# [3] = molecular target: T3, Avi-KRAS G12R (1-169) GppNHp/RAF1 RBD-3xFLAG (52-151) (Homo sapiens, UniProt P01116, G12R); assay: Raf1-KRAS G12R-GppNHP disruption HTRF assay (Biological Example 1); type: binding
# T3 construct: Avi-KRAS G12R (1-169)
# T3 sequence (P01116 1-169 isoform P01116-2 G12R): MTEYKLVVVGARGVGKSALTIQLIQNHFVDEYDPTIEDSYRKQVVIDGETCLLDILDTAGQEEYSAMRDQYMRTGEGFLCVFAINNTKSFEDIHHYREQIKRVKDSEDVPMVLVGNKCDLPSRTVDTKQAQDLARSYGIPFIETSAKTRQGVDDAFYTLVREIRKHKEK
# Summary of the method: as §1
# [4] = molecular target: T4, Avi-KRAS WT (1-169) GppNHp/RAF1 RBD-3xFLAG (52-151) (Homo sapiens, UniProt P01116); assay: Raf1-KRAS WT-GppNHP disruption HTRF assay (Biological Example 1); type: binding
# T4 construct: Avi-KRAS WT (1-169)
# T4 sequence (P01116 1-169 isoform P01116-2): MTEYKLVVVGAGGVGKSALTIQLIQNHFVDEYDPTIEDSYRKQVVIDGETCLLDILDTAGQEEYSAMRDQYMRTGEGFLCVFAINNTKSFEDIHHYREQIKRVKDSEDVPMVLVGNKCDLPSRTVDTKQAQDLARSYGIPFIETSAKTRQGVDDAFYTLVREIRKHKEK
# Summary of the method: as §1
# SW620 cells (KRAS G12V) = assay: Cell-based pERK HTRF assay in SW620 cell (Biological Example 4); details: Homo sapiens, SW-620, SW620 (KRAS G12V) cells, pERK HTRF
# Summary of the method: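 SW620 cells were treated for 4 h with compound in a 9-point half-log series from 1 μM top (0.25% DMSO), then lysed. Phospho-ERK was detected by HTRF with d2 and Eu cryptate antibodies after 4–24 h at room temperature, read at 615 nm emission.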
# [5] = KRAS G12D, GppNHp-loaded, class symbols
# [6] = KRAS G12V, GppNHp-loaded, class symbols
# [7] = KRAS G12R, GppNHp-loaded, class symbols
# [8] = KRAS WT, GppNHp-loaded, class symbols
# [9] = KRAS G12D, GppNHp-loaded, Table 11
# [10] = KRAS G12V, GppNHp-loaded, Table 11
# [11] = KRAS G12R, GppNHp-loaded, Table 11
# [12] = KRAS WT, GppNHp-loaded, Table 11
# T1 sequence (P01116 1-169 isoform P01116-2 G12D): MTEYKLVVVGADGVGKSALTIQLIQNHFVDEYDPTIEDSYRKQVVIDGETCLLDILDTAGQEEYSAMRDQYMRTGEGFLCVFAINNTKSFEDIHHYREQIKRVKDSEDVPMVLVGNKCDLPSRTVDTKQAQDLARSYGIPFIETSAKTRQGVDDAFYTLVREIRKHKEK
"IC50 [1, 5] [µM]","IC50 (GP2d cells (KRAS G12D); GP2d, class symbols) [µM]","IC50 [2, 6] [µM]","IC50 [3, 7] [µM]","IC50 [4, 8] [µM]",IC50 (SW620 cells (KRAS G12V); class symbols) [µM],"IC50 [1, 9] [µM]",IC50 (GP2d cells (KRAS G12D); GP2d) [µM],"IC50 [2, 10] [µM]","IC50 [3, 11] [µM]","IC50 [4, 12] [µM]",IC50 (SW620 cells (KRAS G12V)) [µM],IC50 ([1]; KRAS G12D-GppNHp/RAF1 RBD HTRF) [µM],IC50 ([2]; KRAS G12V-GppNHp/RAF1 RBD HTRF) [µM],IC50 ([3]; KRAS G12R-GppNHp/RAF1 RBD HTRF) [µM],IC50 ([4]; KRAS WT-GppNHp/RAF1 RBD HTRF) [µM],Compound,IC50 (GP2d cells (KRAS G12D)) [µM]
0.1 to 1,< 0.1,0.1 to 1,0.1 to 1,0.1 to 1,< 0.1,–,–,–,–,–,–,–,–,–,–,"CCN(c1nc(OC[C@@]23CCCN2C[C@H](F)C3)nc2c(F)c(-c3ccc(F)c4sc(N)c(C#N)c34)c(C(F)(F)F)cc12)[C@@H]1C[C@H](C)N(C(=O)C2CC2)C1 (atropisomer, axis not shown) [Compound 588]",–
< 0.1,< 0.1,0.1 to 1,0.1 to 1,0.1 to 1,< 0.1,–,–,–,–,–,–,–,–,–,–,"N#Cc1c(N)sc2c(F)ccc(-c3c(C(F)(F)F)cc4c(N(C5CC5)[C@H]5CCN(C(=O)[C@H]6CCO6)C5)nc(OC[C@@]56CCCN5C[C@H](F)C6)nc4c3F)c12 (atropisomer, axis not shown) [Compound 812]",–
–,–,–,–,–,–,1 to 10,< 0.1,0.1 to 1,1 to 10,0.1 to 1,0.1 to 1,–,–,–,–,CC(=O)N1C[C@H]2CCN(c3nc(OC[C@@]45CCCN4C[C@H](F)C5)nc4c(F)c(-c5ccc(F)c6sc(N)c(C#N)c56)c(C(F)(F)F)cc34)[C@H]2C1 [Compound 210],–
–,–,–,–,–,–,–,> 1,–,–,–,0.1 to 1,1 to 10,> 10,> 10,> 10,CN(C)C(=O)c1nc2c(s1)CCN(c1nc(OCC34CCCN3CC(F)C4)nc3c(F)c(-c4ccc(F)c5sc(N)c(C#N)c45)c(C(F)(F)F)cc13)C2 (stereo not drawn) [Compound 445],–
< 0.1,< 0.1,< 0.1,< 0.1,< 0.1,< 0.1,–,–,–,–,–,–,–,–,–,–,"CCN(c1nc(OC[C@@]23CCCN2C[C@H](F)C3)nc2c(F)c(-c3ccc(F)c4sc(N)c(C#N)c34)c(C(F)(F)F)cc12)[C@H]1CCN(C(=O)N2C[C@@H]3C[C@H]2CO3)C1 (atropisomer, axis not shown) [Compound 654]",–
–,–,–,–,–,–,–,0.1 to 1,–,–,–,0.1 to 1,1 to 10,> 10,1 to 10,1 to 10,N#Cc1c(N)sc2c(F)ccc(-c3c(C(F)(F)F)cc4c(N5CC6CC(O)C(C6)C5)nc(OC[C@@]56CCCN5C[C@H](F)C6)nc4c3F)c12 (stereo partly drawn) [Compound 306],–
–,–,–,–,–,–,–,< 0.1,–,–,–,< 0.1,< 0.1,< 0.1,< 0.1,< 0.1,"CCN(c1nc(OC[C@@]23CCCN2C[C@H](F)C3)nc2c(F)c(-c3ccc(F)c4sc(N)c(C#N)c34)c(C(F)(F)F)cc12)[C@H]1CCN(C(=O)c2ccno2)C1 (atropisomer, axis not shown) [Compound 552]",–
–,–,–,–,–,–,0.1 to 1,< 0.1,0.1 to 1,0.1 to 1,0.1 to 1,< 0.1,–,–,–,–,CC(=O)N1CCCN(c2nc(OC[C@@]34CCCN3C[C@H](F)C4)nc3c(F)c(-c4ccc(F)c5sc(N)c(C#N)c45)c(C(F)(F)F)cc23)CC1 [Compound 278],–
–,–,–,–,–,–,–,< 0.1,–,–,–,< 0.1,1 to 10,1 to 10,1 to 10,0.1 to 1,CN1C[C@H](N(C)c2nc(OC[C@@]34CCCN3C[C@H](F)C4)nc3c(F)c(-c4ccc(F)c5sc(N)c(C#N)c45)c(C(F)(F)F)cc23)CCC1=O [Compound 441],–
–,–,–,–,–,–,–,< 0.1,–,–,–,0.1 to 1,0.1 to 1,1 to 10,1 to 10,0.1 to 1,CC(C)C(=O)N1CC[C@@H](N(C)c2nc(OC[C@@]34CCCN3C[C@H](F)C4)nc3c(F)c(-c4ccc(F)c5sc(N)c(C#N)c45)c(C(F)(F)F)cc23)[C@@H]1C [Compound 300],–
–,–,–,–,–,–,–,< 0.1,–,–,–,< 0.1,0.1 to 1,0.1 to 1,0.1 to 1,0.1 to 1,CC(=O)N1CCC[C@H](N(C)c2nc(OC[C@@]34CCCN3C[C@H](F)C4)nc3c(F)c(-c4ccc(F)c5sc(N)c(C#N)c45)c(C(F)(F)F)cc23)C1 [Compound 289],–
–,–,–,–,–,–,0.1 to 1,< 0.1,0.1 to 1,0.1 to 1,0.1 to 1,< 0.1,–,–,–,–,CC(=O)N(C)CCN(C)c1nc(OC[C@@]23CCCN2C[C@H](F)C3)nc2c(F)c(-c3ccc(F)c4sc(N)c(C#N)c34)c(C(F)(F)F)cc12 [Compound 255],–
< 0.1,< 0.1,< 0.1,< 0.1,< 0.1,< 0.1,–,–,–,–,–,–,–,–,–,–,CCN(c1nc(OC[C@@]23CCCN2C[C@H](F)C3)nc2c(F)c(-c3ccc(F)c4sc(N)c(C#N)c34)c(C(F)(F)F)cc12)[C@H]1CCN(C(=O)C2C[C@@H]2C)C1 (stereo partly drawn) [Compound 604],–
–,–,–,–,–,–,–,< 0.1,–,–,–,0.1 to 1,1 to 10,1 to 10,1 to 10,1 to 10,CC(=O)N1CC[C@](C)(N(C)c2nc(OC[C@@]34CCCN3C[C@H](F)C4)nc3c(F)c(-c4ccc(F)c5sc(N)c(C#N)c45)c(C(F)(F)F)cc23)C1 [Compound 505],–
–,–,–,–,–,–,–,< 0.1,–,–,–,< 0.1,0.1 to 1,0.1 to 1,0.1 to 1,0.1 to 1,CCN(c1nc(OC[C@@]23CCCN2C[C@H](F)C3)nc2c(F)c(-c3ccc(F)c4sc(N)c(C#N)c34)c(C(F)(F)F)cc12)[C@@H]1CCN(C(=O)OC)C1 [Compound 396],–
< 0.1,< 0.1,< 0.1,< 0.1,< 0.1,< 0.1,–,–,–,–,–,–,–,–,–,–,"CCN(c1nc(OC[C@@]23CCCN2C[C@H](F)C3)nc2c(F)c(-c3ccc(F)c4sc(N)c(C#N)c34)c(C(F)(F)F)cc12)[C@H]1CCN(C(=O)OCC2CN(C(C)=O)C2)C1 (atropisomer, axis not shown) [Compound 640]",–
–,–,–,–,–,–,–,< 0.1,–,–,–,< 0.1,1 to 10,1 to 10,1 to 10,0.1 to 1,N#Cc1c(N)sc2c(F)ccc(-c3c(C(F)(F)F)cc4c(N5CCN6C(=O)OCC6C5)nc(OCC56CCCN5CC(F)C6)nc4c3F)c12 (stereo not drawn) [Compound 428],–
–,–,–,–,–,–,0.1 to 1,0.1 to 1,1 to 10,1 to 10,0.1 to 1,0.1 to 1,–,–,–,–,CS(=O)(=O)C1CN(c2nc(OC[C@@]34CCCN3C[C@H](F)C4)nc3c(F)c(-c4ccc(F)c5sc(N)c(C#N)c45)c(C(F)(F)F)cc23)C1 [Compound 223],–
–,–,–,–,–,–,–,< 0.1,–,–,–,< 0.1,0.1 to 1,0.1 to 1,0.1 to 1,0.1 to 1,CCC(=O)N1CC[C@@H](N(CC)c2nc(OC[C@@]34CCCN3C[C@H](F)C4)nc3c(F)c(-c4ccc(F)c5sc(N)c(C#N)c45)c(C(F)(F)F)cc23)[C@H]1C [Compound 405],–
–,–,–,–,–,–,> 10,> 1,> 10,> 10,> 10,> 1,–,–,–,–,CC(=O)N1CC[C@H](N(C)c2nc(OC[C@@H]3C[C@@H](F)CN3C)nc3c(F)c(-c4ccc(F)c5sc(N)c(C#N)c45)c(C(F)(F)F)cc23)[C@@H]1C [Compound 226],–
< 0.1,< 0.1,0.1 to 1,< 0.1,0.1 to 1,< 0.1,–,–,–,–,–,–,–,–,–,–,"CN(C)C(=O)N1CC[C@H](N(C)c2nc(OC[C@@]34CCCN3C[C@H](F)C4)nc3c(F)c(-c4ccc(F)c5sc(N)c(C#N)c45)c(C(F)(F)F)cc23)C1 (atropisomer, axis not shown) [Compound 755]",–
–,–,–,–,–,–,–,< 0.1,–,–,–,< 0.1,0.1 to 1,0.1 to 1,0.1 to 1,0.1 to 1,N#Cc1c(N)sc2c(F)ccc(-c3c(C(F)(F)F)cc4c(N5CC6OCC5C6O)nc(OC[C@@]56CCCN5C[C@H](F)C6)nc4c3F)c12 (stereo partly drawn) [Compound 508],–

Compound,"IC50 [1, 5] [µM]","IC50 (GP2d cells (KRAS G12D); GP2d, class symbols) [µM]","IC50 [2, 6] [µM]","IC50 [3, 7] [µM]","IC50 [4, 8] [µM]",IC50 (SW620 cells (KRAS G12V); class symbols) [µM],"IC50 [1, 9] [µM]",IC50 (GP2d cells (KRAS G12D); GP2d) [µM],"IC50 [2, 10] [µM]","IC50 [3, 11] [µM]","IC50 [4, 12] [µM]",IC50 (SW620 cells (KRAS G12V)) [µM],IC50 ([1]; KRAS G12D-GppNHp/RAF1 RBD HTRF) [µM],IC50 ([2]; KRAS G12V-GppNHp/RAF1 RBD HTRF) [µM],IC50 ([3]; KRAS G12R-GppNHp/RAF1 RBD HTRF) [µM],IC50 ([4]; KRAS WT-GppNHp/RAF1 RBD HTRF) [µM],IC50 (GP2d cells (KRAS G12D)) [µM]
C[C@@H]1[C@H](N(C)c2nc(OC[C@@]34CCCN3C[C@H](F)C4)nc3c(F)c(-c4ccc(F)c5sc(N)c(C#N)c45)c(Cl)cc23)CCN1C(=O)CF [Compound 460],–,–,–,–,–,–,–,–,–,–,–,< 0.1,0.1 to 1,0.1 to 1,0.1 to 1,0.1 to 1,< 0.1
